# Measurements published in patent publication US20090081758A1, “Chimeric Cytochrome P450 Proteins and Methods of Use” (THE REGENTS OF THE UNIVERSITY OF MICHIGAN, priority 2007, published 2009).
# Key:
# PikC-RhFRED [1] = experiment: Steady-state kinetics, substrate consumption by HPLC, PikC-RhFRED; type: biochemical, Streptomyces venezuelae; conditions: kcat/Km of PikC-RhFRED relative to wt-PikC with Fdr and Fdx
# Description: Subsequently, the kinetic parameters of PikC-RhFRED were compared with those of the PikC-Fdr-Fdx three component system. […] Moreover, the solubility limitation (less than 500 μM) of macrolides in aqueous solution prevented us from deducing the K, value. Therefore, the apparent specificity constants (kcat/Km) were determined by fitting the low-concentration data to the linear region of a Michaelis-Menten curve. […] In contrast, the specificity constants of wt-PikC partnered by Fdr and Fdx were 0.24 μM^−1·min^−1 for YC-17 and 0.31 μM^−1·min^−1 for narbomycin. It is evident that the fusion enhanced the catalytic activity approximately 4 fold for both YC-17 and narbomycin. […] The presumed de-coupling between electron transfer and hydroxylation may account for this difference.
# The standard reaction contains 100 nM of PikC-RhFRED (or 150 nM of wt-PikC with 3.5 μM spinach ferredoxin and 0.1 U/ml spinach ferredoxin-NADP^+ reductase), 20˜250 μM substrate in 200 μl of desalting buffer (50 mM NaH2PO4, pH 7.3, 1 mM EDTA, 0.2 mM DTE, 10% glycerol). After pre-incubation at 30° C. for 5 min, the reaction was initiated by adding 1 μl of 50 mM NADPH and 50 μl aliquots were taken at 0 s, 20 s, and 40 s (or Os, 30 s, and 60 s when substrate concentration greater than 100 μM) to thoroughly mix with 2×100 μl of chloroform. […]
# wt-PikC = wt-PikC (Streptomyces venezuelae, UniProt O87605); experiment: Spectral substrate binding assay, wt-PikC; conditions: Type I difference spectra, 1 μM P450, room temperature; read-out: Kd (dissociation constant)
# Description: (§1) Spectral substrate binding assays were performed using a UV-visible spectrophotometer 300 Bio (Cary) at room temperature by titrating 30 mM substrate DMSO solution (blank DMSO for reference group) into 1 ml of 1 μM P450 sample in 1 μl aliquots, leading to substrate concentration ranging from 30 to 360 μM. The series of Type I difference spectra were used to deduce ΔA (Apeak(389)−Atrough(424)). Then, the data were fit to Michaelis-Menten equation to obtain the dissociation constant Kd. As mentioned above, one benefit of the fusion protein arrangement is the facility of the covalent linkage to stabilize productive interactions between the P450 and redox partner, thus enhancing electron transfer efficiency. […] To test whether this also applies to PikC-RhFRED, we first determined the substrate binding affinity of YC-17 and narbomycin toward both PikC and PikC-RhFRED.
# PikC-RhFRED [2] = experiment: Spectral substrate binding assay, PikC-RhFRED; design: species or system Streptomyces venezuelae; conditions: Type I difference spectra, 1 μM P450, room temperature; read-out: Kd (dissociation constant)
# Description: as §1
# Chain of wt-PikC (O87605 whole entry, the tested form may be a part): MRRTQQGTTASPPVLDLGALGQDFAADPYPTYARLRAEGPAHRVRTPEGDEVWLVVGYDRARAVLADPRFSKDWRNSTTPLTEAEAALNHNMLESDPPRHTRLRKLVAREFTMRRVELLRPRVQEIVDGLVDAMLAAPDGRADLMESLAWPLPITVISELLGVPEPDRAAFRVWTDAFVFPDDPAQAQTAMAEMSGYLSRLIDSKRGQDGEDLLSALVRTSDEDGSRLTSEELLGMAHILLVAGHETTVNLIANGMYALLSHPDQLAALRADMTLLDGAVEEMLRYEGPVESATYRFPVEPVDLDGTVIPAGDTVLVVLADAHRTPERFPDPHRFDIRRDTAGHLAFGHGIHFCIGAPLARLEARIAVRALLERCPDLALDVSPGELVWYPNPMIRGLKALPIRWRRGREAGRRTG
smiles,measurement,setting,value
CC[C@H]1OC(=O)[C@H](C)C(=O)[C@H](C)[C@@H](O[C@@H]2O[C@H](C)C[C@H](N(C)C)[C@H]2O)[C@@H](C)C[C@@H](C)C(=O)/C=C/[C@H]1C [narbomycin],enhancement of catalytic activity by fusion (PikC-RhFRED vs wt-PikC),PikC-RhFRED [1],approximately 4 fold
same,Kd,wt-PikC,288 ± 7.1 µM
same,Kd,PikC-RhFRED [2],215 ± 4.2 µM
CC[C@H]1OC(=O)[C@H](C)[C@@H](O[C@@H]2O[C@H](C)C[C@H](N(C)C)[C@H]2O)[C@@H](C)C[C@@H](C)C(=O)/C=C/[C@H]1C [YC-17],enhancement of catalytic activity by fusion (PikC-RhFRED vs wt-PikC),PikC-RhFRED [1],approximately 4 fold
same,Kd,wt-PikC,113 ± 1.9 µM
same,Kd,PikC-RhFRED [2],92.6 ± 0.5 µM
